Data from patent US5574039A, “Antiproliferative compounds having nitrogen-containing tricyclic ring systems and phenyl substituents” (Agouron Pharmaceuticals, Inc., priority 1994, dated 1996).
Read-outs that look alike come from different tables or passages of the source.

Key:
[1] = target: Escherichia Coli TS ("ETS") (Escherichia coli, UniProt P0A884); assay: Thymidylate synthase inhibition constant Ki, Escherichia Coli TS; assay type: biochemical
Method: (§1) Thymidylate synthase inhibition constants Ki were determined by the following method. All assays were run at 25° C. and initiated by the addition of three different types of thymidylate synthase ("TS"): (1) Escherichia Coli TS ("ETS"); (2) Candida TS ("CTS"), a fungus; and (3) human TS ("HTS").
(§2) All reaction mixtures contained 50 mM Tris at pH 7.8 (the final pH of the reaction was; 7.6), 10 mM DTT (dithiothreitol), 1 mM EDTA (ethylenediaminetetraacetic acid), 25 mM MgCl2, 15 mM H2 CO (formaldehyde) and 25 microM dUMP. When human TS was assayed, 100 micrograms/ml of BSA (bovine serum albumin) was present in the reactions. The range of THF (Tetrahydrofolate) was 5 to 150 microM (eight concentrations: 5, 6.6, 10, 13, 16, 25, 50 and 150 microM). A standard curve in the absence of inhibitor was run with each experiment. […] Charcoal was used to remove unreacted dUMP from the tritium release reaction mixtures, and the resultant water was counted to determine the extent of reaction.

human TS ("HTS") = human TS ("HTS") (Homo sapiens, UniProt P04818); assay: biochemical
Method: as §1
as §2, with “The range of THF (Tetrahydrofolate) was 5 to 150 microM (eight concentrations: 5, 6.6, 10, 13, 16, 25, 50 and 150 microM).” left out

Candida TS ("CTS") = Candida TS ("CTS") (Candida albicans, UniProt P12461); assay: Thymidylate synthase inhibition constant Ki, Candida TS; assay type: biochemical
Method: as §1, §2

[2] = system: L1210 murine leukemia (ATCC CCL 219); assay: cells; assay type: cell-based; conditions: Mus musculus, L1210, 72 h, read-out: IC50 L1210
[3] = system: CCRF-CEM, a human lymphoblastic leukemia line of T-cell origin (ATCC CCL 119); assay: cells; assay type: cell-based; conditions: 120 h, read-out: IC50 (CRFCEM)
[4] = system: thymidine kinase deficient human adenocarcinoma line (GC3 /M TK^-); assay: cells; assay type: cell-based; conditions: GC3/MTK-, 120 h, read-out: IC50 GC3-M

Candida TS ("CTS"), sequence (P12461 whole entry): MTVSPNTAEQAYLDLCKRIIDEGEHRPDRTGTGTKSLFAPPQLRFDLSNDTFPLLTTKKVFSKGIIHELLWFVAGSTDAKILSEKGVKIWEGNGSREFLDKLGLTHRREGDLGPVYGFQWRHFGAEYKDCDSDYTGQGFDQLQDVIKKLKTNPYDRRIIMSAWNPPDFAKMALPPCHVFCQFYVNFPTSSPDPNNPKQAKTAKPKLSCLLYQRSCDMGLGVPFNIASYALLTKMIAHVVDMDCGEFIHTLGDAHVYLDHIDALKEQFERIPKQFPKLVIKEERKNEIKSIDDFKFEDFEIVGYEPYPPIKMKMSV
human TS ("HTS"), sequence (P04818 whole entry): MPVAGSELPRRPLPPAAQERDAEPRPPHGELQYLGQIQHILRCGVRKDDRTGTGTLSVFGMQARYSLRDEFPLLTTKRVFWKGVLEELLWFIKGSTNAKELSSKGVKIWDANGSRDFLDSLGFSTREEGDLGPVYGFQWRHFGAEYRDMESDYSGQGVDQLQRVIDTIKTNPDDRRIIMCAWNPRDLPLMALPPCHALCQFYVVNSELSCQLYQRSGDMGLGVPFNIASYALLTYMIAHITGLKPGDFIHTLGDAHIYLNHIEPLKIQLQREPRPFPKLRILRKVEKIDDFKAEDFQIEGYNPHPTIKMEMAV
Escherichia Coli TS ("ETS"), sequence (P0A884 whole entry): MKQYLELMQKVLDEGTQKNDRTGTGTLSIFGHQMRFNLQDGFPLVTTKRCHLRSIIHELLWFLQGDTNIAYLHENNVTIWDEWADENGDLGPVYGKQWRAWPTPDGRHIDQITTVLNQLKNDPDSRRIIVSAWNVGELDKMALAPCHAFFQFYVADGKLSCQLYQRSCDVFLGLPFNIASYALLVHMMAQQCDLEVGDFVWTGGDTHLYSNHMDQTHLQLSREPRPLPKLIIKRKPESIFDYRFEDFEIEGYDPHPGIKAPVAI

Row | SMILES | Ki [1] [µM] | Ki (human TS ("HTS")) [µM] | Ki (Candida TS ("CTS")) [µM] | IC50 [2] [nM] | IC50 [3] [µM] | IC50 [4] [µM] | Ki ([1]; read-out: Ki ETS, 25° C., against 5,10-methylene-tetrahydrofolate, 25 microM dUMP) [µM] | Ki (Candida TS ("CTS"); read-out: Ki CTS, 25° C., against 5,10-methylene-tetrahydrofolate, 25 microM dUMP) [µM]
1 | CC(C)N(Cc1ccc(S(=O)(=O)N2CCNCC2)cc1)c1ccc2c3c(cccc13)C(=O)N2 [Compound 22, N-[4-(N,N-piperazinylsulfamoyl)benzyl]-N-isopropyl-6-aminobenz[cd]indol-2(1H)-one] | 23 ± 7 | 4.9 ± 0.7 | 43 ± 9 | 3900 | 6.8 | 5.9 |  | 
2 | CN(Cc1ccc(S(=O)(=O)c2ccccc2)cc1)c1ccc2c3c(cccc13)C(=O)N2 [Compound 29] |  |  |  |  |  | > 5 |  | 
3 | CCN(Cc1ccc(S(=O)(=O)c2ccccc2)cc1)c1ccc2c3c(cccc13)C(=O)N2 [Compound 8, N-[4-(phenylsulfonyl)benzyl]-N-ethyl-6-aminobenz[cd]indol-2(1H)-one] | > 1 | 1.2 ± 0.4 | > 1 | 3050 | > 3.33 | > 3.33 |  | 
4 | CN(Cc1ccc(CO)c2ccccc12)c1ccc2c3c(cccc13)C(=O)N2 [Compound 31, N-[4-Hydroxymethyl-1-naphthobenzyl]-N-methyl-6-aminobenz[cd]indol-2(1H)-one] |  | 10 ± 1 |  | 800 | 3 | 4 | > 2 | > 2
5 | CCN(Cc1ccc(S(=O)(=O)c2ccccc2)cc1)c1ccc2c3c(cccc13)CN2 [Compound 41, N-[4-(phenylsulfonyl)benzyl]-N-ethyl-6-amino-dihydrobenz[cd]indole] | > 5 | 12 ± 3 | > 10 |  |  |  |  | 
6 | CN(Cc1ccc2cc(CO)ccc2c1)c1ccc2c3c(cccc13)C(=O)N2 [Compound 47, N-(6-Hydroxymethyl-2-naphthobenzyl)-N-methyl-6-aminobenz[cd]indol-2(1H)-one] | > 10 | 20 ± 10 | > 10 | 1700 | > 4 | > 4 |  | 
7 | O=C1Nc2ccc(N(CCO)Cc3ccc(S(=O)(=O)N4CCNCC4)cc3)c3cccc1c23 [Compound 16, N-[4-(N,N-Piperazinylsulfamoyl)benzyl]-N-hydroxyethyl-6-aminobenz[cd]indol-2(1H)-one] | 14 ± 7 | 0.87 ± 0.19 | 11 ± 7 | 50000 | 31 | > 50 |  | 
8 | CCCN(Cc1ccc(S(=O)(=O)N2CCNCC2)cc1)c1ccc2c3c(cccc13)C(=O)N2 [Compound 19, N-[4-(N,N-Piperazinylsulfamoyl)benzyl]-N-propyl-6-aminobenz[cd]indol-2(1H)-one] | > 20 | 12 ± 4 | > 10 | 2900 | 3.1 | 5.4 |  | 
9 | CCN(Cc1ccc(S(=O)(=O)N2CCNCC2)cc1)c1ccc2c3c(cccc13)C(=S)N2 [Compound 6, N-^6 -Ethyl-N^6 [(4-N,N-piperazinyl)sulfamoyl]benzyl-6-aminobenz[cd]indol-2(1H)-thione] | 50 ± 9 | 3.4 ± 0.4 | 23 ± 15 | 2100 | 3.5 | > 5 |  | 
10 | O=C1Nc2ccc(N(CCCO)Cc3ccc(S(=O)(=O)N4CCNCC4)cc3)c3cccc1c23 [Compound 40, N-[4-(N,N-Piperazinylsulfamoyl)benzyl]-N-hydroxypropyl-6-aminobenz[cd]indol-2-(1H)-one] | > 10 | 11 ± 5 | > 10 | 21500 | 15 | 30 |  | 
11 | CSCN(Cc1ccc(S(=O)(=O)c2ccccc2)cc1)c1ccc2c3c(cccc13)C(=O)N2 [Compound 24, N-[4-(Phenylsulfonyl)benzyl]-N-methylthiomethyl-6-aminobenz[cd]indol-2(1H)-one] | > 1 | 3.9 ± 1.7 | > 1 | 2100 | 2.8 | > 10 |  | 
12 | CCN(Cc1ccc(S(=O)(=O)c2ccccc2)cc1)c1ccc2c3c(cccc13)C(N)=N2 [Compound 34] | 10 ± 6 | 0.075 ± 0.037 | 0.38 ± 0.11 | 700 | 1.25 | 3 |  | 
